Experimental data from patent publication US5824698A, “Antibacterial dibenzimidazole derivatives” (priority 1994, dated 1998).
Converted amounts (≈) assume the structure as drawn. Structures can show the parent of a compound that is named as a salt. Where two headings read alike, the source gives them in different places.

Assays:
Format in all cases: cell-based
[1] = tested on: E. cloacae P 99; assay: Antibacterial activity in vitro (MIC, standard agar method); settings: Enterobacter cloacae, P99, 20 h, read-out: Minimum inhibitory concentration (MIC)
Protocol: (§1) The minimum inhibitory concentration (MIC) of the substances investigated against gram-positive and gram-negative strains was determined using standard agar methods. The compounds were dissolved in a small amount of dimethyl sulphoxide, diluted with water and incorporated into liquified DST agar at 50° C. The thus-produced agar plates were used immediately thereafter in the test. The test concentrations lay between 128 and 0.06 μg/ml. The bacterial inoculation solutions were prepared from pre-cultures grown overnight, diluted and applied to the agar surface using an inoculation device (Denley A400). The plates were incubated at 35° C. for 20 hours. The MIC was determined as the lowest concentration of substance which prevented a visible growth. A scarcely visible turbidity and the growth of less than 5 colonies were ignored. The determinations of the antibacterial activities (Tab. 1) were carried out not only for the free bases, but also for the hydrochloride salt of each compound. The same values were obtained within experimental error.

[2] = tested on: E. coli 1346; assay: as above; settings: Escherichia coli, DST agar, 35° C., 20 hours, read-out: Minimum inhibitory concentration (MIC)
Protocol: as §1

[3] = tested on: E. coli 1527 E; assay: as above; settings: Escherichia coli, read-out: Minimum inhibitory concentration (MIC)
Protocol: as §1

[4] = tested on: E. coli 159 R; assay: as above; settings: Escherichia coli, read-out: Minimum inhibitory concentration (MIC)
Protocol: as §1

[5] = tested on: E. coli AS-19; assay: as above; settings: Escherichia coli, AS19, DST agar, 35° C., 20 hours, read-out: Minimum inhibitory concentration (MIC)
Protocol: as §1

[6] = tested on: E. coli B; assay: as above; settings: Escherichia coli, DST agar, 35° C., 20 hours, read-out: Minimum inhibitory concentration (MIC)
Protocol: as §1

[7] = tested on: E. coli DC2; assay: as above; settings: Escherichia coli; E. coli DC2; DST agar, 35° C., 20 hours; read-out: Minimum inhibitory concentration (MIC)
Protocol: as §1

[8] = tested on: E. coli H560; assay: as above; settings: Escherichia coli, read-out: Minimum inhibitory concentration (MIC)
Protocol: as §1

[9] = tested on: E. coli K12 KEA-12 (GyrA); assay: as above; settings: Escherichia coli, 20 h, read-out: Minimum inhibitory concentration (MIC)
Protocol: as §1

[10] = tested on: E. faecalis 6; assay: as above; settings: read-out: Minimum inhibitory concentration (MIC)
Protocol: as §1

[11] = tested on: P. aeroguinosa 3351; assay: as above; settings: read-out: Minimum inhibitory concentration (MIC)
Protocol: as §1

[12] = tested on: P. aeruginosa 799/61; assay: as above; settings: Pseudomonas aeruginosa, read-out: Minimum inhibitory concentration (MIC)
Protocol: as §1

[13] = tested on: S. aureus 101; assay: as above; settings: Staphylococcus aureus, DST agar, 35° C., 20 hours, read-out: Minimum inhibitory concentration (MIC)
Protocol: as §1

[14] = tested on: S. aureus 853; assay: as above; settings: Staphylococcus aureus, DST agar, 35° C., 20 hours, read-out: Minimum inhibitory concentration (MIC)
Protocol: as §1

[15] = tested on: S. haemolyticus 91; assay: as above; settings: Staphylococcus haemolyticus, DST agar, 35° C., 20 hours, read-out: Minimum inhibitory concentration (MIC)
Protocol: as §1

[16] = tested on: S. marcescens; assay: as above; settings: Serratia marcescens, read-out: Minimum inhibitory concentration (MIC)
Protocol: as §1

[17] = tested on: Staph. aureus 25923; assay: as above; settings: Staphylococcus aureus, DST agar, 35° C., 20 hours, read-out: Minimum inhibitory concentration (MIC)
Protocol: as §1

[18] = tested on: Staph. aureus 887; assay: as above; settings: Staphylococcus aureus, DST agar, 35° C., 20 hours, read-out: Minimum inhibitory concentration (MIC)
Protocol: as §1

[19] = tested on: Staph. haemolyticus 75; assay: as above; settings: Staphylococcus haemolyticus, DST agar, 35° C., 20 hours, read-out: Minimum inhibitory concentration (MIC)
Protocol: as §1

[20] = tested on: Helicobacter pylori K 1585; assay: Antibacterial activity against Helicobacter pylori in vitro (MIC, agar method); settings: K1585, H. pylori K 1585, Muller-Hinton agar, 5% sheep blood, incubation 4 days, read-out: Minimum inhibitory concentration (MIC)
Protocol: as §1
(§2) The antibacterial activities against Helicobacter pylori were carried out analogously to the method described above with the following variations: The compounds were incorporated into Muller-Hinton agar containing 5% sheep blood additive. The test concentrations lay between 10 and 0.1 μg/ml. […]

[21] = tested on: Helicobacter pylori PH 81; assay: as above; settings: PH81, H. pylori PH 81, Muller-Hinton agar, 5% sheep blood, incubation 7 days, read-out: Minimum inhibitory concentration (MIC)
Protocol: as §1, §2

[22] = tested on: B. subtilis ATCC 585369; assay: Antibacterial activity in vitro (MIC, standard agar method); settings: Bacillus subtilis, ATCC585369, DST agar, 35° C., 20 hours, read-out: Minimum inhibitory concentration (MIC)
Protocol: as §1

[23] = tested on: E. coli 25922; assay: as above; settings: Escherichia coli; E. coli 25922; DST agar, 35° C., 20 hours; read-out: Minimum inhibitory concentration (MIC)
Protocol: as §1

[24] = tested on: K. oxytoca 1082E; assay: as above; settings: Klebsiella oxytoca, DST agar, 35° C., 20 hours, read-out: Minimum inhibitory concentration (MIC)
Protocol: as §1

[25] = tested on: P. aeroginosa BA; assay: as above; settings: DST agar, 35° C., 20 hours, read-out: Minimum inhibitory concentration (MIC)
Protocol: as §1

[26] = E. coli 159 R, DST agar, 35° C., 20 hours
[27] = Enterococcus faecalis, E. faecalis 6, DST agar, 35° C., 20 hours

Row | Compound | MIC [1] | MIC [2] | MIC [4, 26] | MIC [5] | MIC [6] | MIC [7] | MIC [9] | MIC [10, 27] | MIC [13] | MIC [14] | MIC [15] | MIC [17] | MIC [18] | MIC [19] | MIC [20] | MIC [21] | MIC [22] | MIC [23] | MIC ([8]; H560, 20 h) | MIC [24] | also measured
1 | Oc1ccc(-c2nc3ccc(-c4ccc5nc(-c6ccc(O)c(F)c6)[nH]c5c4)cc3[nH]2)cc1F [Example 1, 2-Fluoro-4-[2'-(3-fluoro-4-hydroxy-phenyl)-6,6'-dibenzimidazol-2-yl]-phenol] | > 64 µg/mL | 32 µg/mL (≈ 70.4 µM) | 8 µg/mL (≈ 17.6 µM) | > 64 µg/mL | > 64 µg/mL | > 64 µg/mL | > 64 µg/mL | 2 µg/mL (≈ 4.4 µM) | 8 µg/mL (≈ 17.6 µM) | 16 µg/mL (≈ 35.2 µM) | 8 µg/mL (≈ 17.6 µM) | 8 µg/mL (≈ 17.6 µM) | 16 µg/mL (≈ 35.2 µM) | 0.25 µg/mL (≈ 0.55 µM) | – | – | – | – | – | – | MIC ([3]; E. coli 1527 E, DST agar, 35° C., 20 hours): > 64 µg/mL; MIC ([8]; E. coli H560, DST agar, 35° C., 20 hours): 8 µg/mL (≈ 17.6 µM); MIC ([11]; P. aeroguinosa 3351, DST agar, 35° C., 20 hours): > 64 µg/mL; MIC ([12]; P. aeruginosa 799/61, DST agar, 35° C., 20 hours): > 64 µg/mL; MIC ([16]; S. marcescens, DST agar, 35° C., 20 hours): > 64 µg/mL
2 | CCOc1ccc(-c2nc3ccc(-c4ccc5nc(-c6ccc(O)cc6)[nH]c5c4)cc3[nH]2)cc1 [Example 11, 4-[2'-(4-Ethoxy-phenyl)-6,6'-dibenzimidazol-2-yl]-phenol] | > 128 µg/mL | 0.25 µg/mL (≈ 0.56 µM) | – | 0.5 µg/mL (≈ 1.12 µM) | 0.5 µg/mL (≈ 1.12 µM) | 1 µg/mL (≈ 2.24 µM) | > 128 µg/mL | 0.5 µg/mL (≈ 1.12 µM) | 0.5 µg/mL (≈ 1.12 µM) | 0.25 µg/mL (≈ 0.56 µM) | – | 0.25 µg/mL (≈ 0.56 µM) | 0.25 µg/mL (≈ 0.56 µM) | 0.12 µg/mL (≈ 0.269 µM) | 1 µg/mL (≈ 2.24 µM) | < 0.1 µg/mL | 0.25 µg/mL (≈ 0.56 µM) | > 128 µg/mL | > 128 µg/mL | > 128 µg/mL | MIC ([4]; 159R, 20 h): > 128 µg/mL; MIC [25]: > 128 µg/mL; MIC ([11]; 20 h): > 128 µg/mL; MIC ([12]; 799/61, 20 h): > 128 µg/mL
3 | Oc1ccc(-c2nc3ccc(-c4ccc5nc(-c6ccc(O)cc6)[nH]c5c4)cc3[nH]2)cc1 [Example 5, 4-[2'-(4-Hydroxy-phenyl)-6,6'-dibenzimidazol-2-yl)-phenol hydrochloride] | > 128 µg/mL | ≤ 0.12 µg/mL | > 4 µg/mL | 0.25 µg/mL | ≤ 0.12 µg/mL | ≤ 0.12 µg/mL | > 128 µg/mL | – | > 32 µg/mL | 0.25 µg/mL | 0.12 µg/mL | ≤ 0.12 µg/mL | ≤ 0.12 µg/mL | ≤ 0.06 µg/mL | 1 µg/mL | < 0.1 µg/mL | ≤ 0.12 µg/mL | > 128 µg/mL | > 128 µg/mL | > 128 µg/mL | MIC ([3]; 1527E, 20 h): > 128 µg/mL; MIC ([10]; Enterococcus faecalis, 6, 20 h): ≤ 0.06 µg/mL; MIC [25]: > 128 µg/mL; MIC ([11]; 20 h): > 128 µg/mL; MIC ([12]; 799/61, 20 h): > 128 µg/mL; MIC ([16]; 20 h): > 128 µg/mL
